Measured values as given in patent US10899763B2, “Crystalline forms of salts of fused penta-cyclic dihydrodiazepinocarbazolones, and uses thereof” (BEIGENE, LTD., priority 2017, dated 2021).
Like-named read-outs stand apart in the source and are kept apart here.

Assays:
[1] = Tissue distribution and excretion after oral administration in rats; type: in vivo
Method: After oral administration in rats, Compound 1 was detected in all organs checked. The drug concentrations reached maximum at 0.25 to 1 hour post-dosing and decreased to less than 10% of the peak concentration at 24 hours post-dosing.
Compound 1 was primarily excreted in feces. The accumulative excretion amounts of Compound 1 in feces were 15% to 20% (up to 48 hours) after oral administration. Less than 1% of Compound 1 was excreted in urine and bile in rats.

[2] = Nonclinical toxicity, single and repeat dose up to 28 days, rats; type: in vivo
[3] = Pharmacokinetics in dog; type: in vivo
Method: (§1) The species used for the pharmacokinetic studies were rat and dog. Compound 1 had good to excellent oral bioavailability (>40%) in both species. Elimination half-lives ranged from 3.1 to 5.0 hours in rats and 1.5 to 2.5 hours in dogs after oral administration. […] Steady state volume of distribution in rats and dogs was 2.4 L/kg and 1.9 L/kg, respectively.

[4] = Metabolism in mouse liver microsomes; type: in vitro ADME
[5] = Metabolism in human liver microsomes; type: in vitro ADME
[6] = system: PARP; details: for PARylation inhibition in tumor: 5.45 mg/kg single oral dose
[7] = Plasma protein binding, rat plasma; type: in vitro ADME
[8] = Metabolism in rat liver microsomes; type: in vitro ADME
[9] = system: CYP3A; test: CYP induction, CYP3A; type: in vitro ADME, human
[10] = system: TMZ-resistant (TR) H209 tumors; test: TMZ-resistant H209-TR xenograft mouse model; type: in vivo; details: combination of Compound 1 and TMZ
Source text: (§2) The in vivo efficacy of Compound 1 was explored in H209 SCLC xenograft model to evaluate the combination effect of Compound 1 and Temozolomide (TMZ), a DNA alkylating agent. TMZ single agent was quite effective in this model. […] However, resistance occurred quickly during the second cycle. […] In order to investigate whether Compound 1 could overcome the TMZ resistance, TMZ-resistant (TR) H209 tumors were generated by treating the H209 tumors with multiple cycles of TMZ in vivo. […] Mice with established intracranial H209 xenografts were used to further investigate the combination activity of Compound 1 and TMZ on SCLC in brain.

[11] = Nonclinical toxicity, single and repeat dose up to 28 days, dogs; type: in vivo
[12] = system: MDA-MB-231 cells; test: Synthetic lethality, CellTiter-Glo cell viability, MDA-MB-231; type: cell-based; details: Homo sapiens; MDA-MB-231, BRCA wildtype; read-out: EC50
Method: MDA-MB-231 cells that is not BRCA gene mutant or other homologous recombination deficient were maintained in DMEM supplemented with fetal bovine serum (10% FBS), 100 units/ml penicillin and 0.1 mg/ml streptomycin. BRCA1-deficient cell line MDA-MB-436 was maintained in RPMI-1640 supplemented with 10% FBS, 100 units/ml penicillin and 0.1 mg/ml streptomycin. Both two cell lines were kept at 95% humidity and 5% CO2 in a 37° C. incubator.
The number of tumor cells seeded per well of a 96-well plate was optimized for each cell line to ensure logarithmic growth over the 7 days treatment period. Cells were left to attach for 16 hours and then treated with specific concentrations of test compounds. Following a 7-day exposure to the compound, the growth-inhibitory activity of compounds was determined using CellTiter-Glo luminescent cell viability assay (Promega). Luminescent signal was measured using PHERAstar FS reader (BMG Labtech). Cell viability was expressed as relative to mock treatment control. EC50 values for growth inhibition were calculated by fitting dose-dependent data to the four-parameter logistic model using XLfit software.

[13] = Pharmacokinetics in rat; type: in vivo
Method: as §1

[14] = system: BRCA1 mutation breast cancer xenograft; test: BRCA1 mutation breast cancer xenograft model; type: in vivo; details: at much lower dose than olaparib
[15] = system: CYP2B6; test: CYP induction, CYP2B6; type: in vitro ADME, human
[16] = Metabolism in monkey liver microsomes; type: in vitro ADME
[17] = system: human CYP1A2; test: CYP induction, CYP1A2; type: in vitro ADME
[18] = Phase I clinical safety study; type: in vivo; details: BRCA1/2 mutant ovary cancer patients
[19] = Brain penetration; details: in vivo
[20] = system: CYP isoform; test: CYP isoforms responsible for metabolism; type: in vitro ADME
[21] = system: H209 SCLC xenograft; test: H209 SCLC xenograft model, combination with TMZ; type: in vivo, mouse; details: combination of Compound 1 and TMZ, multiple cycles
Source text: as §2

[22] = system: intracranial H209 xenografts; test: Intracranial H209 xenograft model; type: in vivo, Mice; details: addition of Compound 1 to TMZ
Source text: as §2

[23] = Metabolism in dog liver microsomes; type: in vitro ADME
[24] = Ames assay; type: cell-based

C[C@]12CCCN1CC1=NNC(=O)c3cc(F)cc4[nH]c2c1c34 [Compound 1, (R)-2-fluoro-10a-methyl-7,8,9,10,10a,11-hexahydro-5,6,7a,11-tetraazacyclohepta[def]cyclopenta-[a]fluoren-4(5H)-one]
excreted in urine and bile [1]: Less than 1%
drug concentration in organs as % of the peak concentration ([1]; oral, 24 hours post-dosing): less than 10%
reversibility of toxicity [2]: reversible after 28-day recovery phase
major target organ of toxicity ([2]; up to 28 days): bone marrow
accumulation following multiple oral dosing [3]: no accumulation
metabolism rate in liver microsomes [4]: metabolized slowly
metabolism rate in liver microsomes [5]: metabolized slowly
PARylation inhibition in tumor ([6]; 0.5 hour after treatment): 98%
PARylation inhibition in tumor ([6]; at 24 hours): 53%
PARylation inhibition in tumor ([6]; through the first 12 hours): > 80%
single oral dose at which potent inhibition of PARylation was observed ([6]; at 4 hours after single oral dose): ≥ 0.34 mg/kg
concentration in tumor tissues needed to achieve at least 80% PARylation inhibition ([6]; dose titration and time course study): over 0.5 μmol/kg
Plasma protein binding (PPB) [7]: 84.9%
metabolism rate in liver microsomes [8]: metabolized slowly
induction of human CYP3A [9]: not an inducer
sensitivity of H209-TR lines to combination with TMZ [10]: remained sensitive
reversibility of toxicity [11]: reversible after 28-day recovery phase
major target organ of toxicity ([11]; up to 28 days): bone marrow
EC50 [12]: ~9 µM
accumulation following multiple oral dosing [13]: no accumulation
tumor regression [14]: significantly induces tumor regression
induction of human CYP2B6 [15]: not an inducer
metabolism rate in liver microsomes [16]: quickly
induction of human CYP1A2 [17]: not an inducer
clinical response [18]: partial or complete responses
brain penetration [19]: significant brain penetration
major CYP isoform responsible for metabolism [20]: CYP3A
effect of combination with TMZ on resistance [21]: significantly delayed resistance without additional toxicity
animal survival compared to TMZ single agent [22]: significantly prolonged animal survival
metabolism rate in liver microsomes [23]: metabolized slowly
mutagenicity [24]: No mutagenicity
